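Where inhibition never reached the appropriate level, the endpoint shown equals the highest concentration tested. Otherwise, values were interpolated linearly from a five-concentration, 48-hour dose response in 96-well plates. GI50 is the concentration that inhibits growth by half. TGI: total growth inhibition.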
How the values were obtained:
Test in all cases: inhibition of tumour cell growth, NCI panel, 48 h
786-0 renal = system: 786-0 renal
A498 renal = system: A498 renal
A549 NSCLC = system: A549 NSCLC
ACHN renal = system: ACHN renal
BT-549 breast = system: BT-549 breast
CAKI-1 renal = system: CAKI-1 renal
CCRF-CEM leukemia = system: CCRF-CEM leukemia
COLO 205 colon = system: COLO 205 colon
DU-145 prostate = system: DU-145 prostate
HCC-2998 colon = system: HCC-2998 colon
HCT-116 colon = system: HCT-116 colon
HCT-15 colon = system: HCT-15 colon
HL-60(TB) leukemia = system: HL-60(TB) leukemia
HOP-62 NSCLC = system: HOP-62 NSCLC
HS 578T breast = system: HS 578T breast
HT29 colon = system: HT29 colon
IGROV1 ovarian = system: IGROV1 ovarian
K-562 leukemia = system: K-562 leukemia
KM12 colon = system: KM12 colon
M14 melanoma = system: M14 melanoma
MALME-3M melanoma = system: MALME-3M melanoma
MCF7 breast = system: MCF7 breast
MDA-MB-231 breast = system: MDA-MB-231 breast
MDA-MB-435 = system: MDA-MB-435
MOLT-4 leukemia = system: MOLT-4 leukemia
NCI-H226 lung = system: NCI-H226 lung
NCI-H23 lung = system: NCI-H23 lung
NCI-H460 lung = system: NCI-H460 lung
NCI-H522 lung = system: NCI-H522 lung
NCI/ADR-RES ovarian = system: NCI/ADR-RES ovarian
OVCAR-3 ovarian = system: OVCAR-3 ovarian
OVCAR-4 ovarian = system: OVCAR-4 ovarian
OVCAR-5 ovarian = system: OVCAR-5 ovarian
OVCAR-8 ovarian = system: OVCAR-8 ovarian
PC-3 prostate = system: PC-3 prostate
RPMI-8226 leukemia = system: RPMI-8226 leukemia
RXF 393 renal = system: RXF 393 renal
SF-268 CNS = system: SF-268 CNS
SF-295 CNS = system: SF-295 CNS
SF-539 CNS = system: SF-539 CNS
SK-MEL-28 melanoma = system: SK-MEL-28 melanoma
SK-MEL-5 melanoma = system: SK-MEL-5 melanoma
SK-OV-3 ovarian = system: SK-OV-3 ovarian
SN12C renal = system: SN12C renal
SNB-19 CNS = system: SNB-19 CNS
SNB-75 CNS = system: SNB-75 CNS
SR leukemia = system: SR leukemia
SW-620 colon = system: SW-620 colon
T-47D breast = system: T-47D breast
TK-10 renal = system: TK-10 renal
U251 CNS = system: U251 CNS
UACC-257 melanoma = system: UACC-257 melanoma
UACC-62 melanoma = system: UACC-62 melanoma
UO-31 renal = system: UO-31 renal

SMILES: COc1ccc(CCc2nc3cc(-c4c(C)noc4C)ccc3n2CCN2CCOCC2)cc1
- GI50 (786-0 renal): 24.4 µM
- TGI (786-0 renal): > 100 µM
- GI50 (A498 renal): 10.1 µM
- TGI (A498 renal): 32.8 µM
- GI50 (A549 NSCLC): 45 µM
- TGI (A549 NSCLC): > 100 µM
- GI50 (ACHN renal): 25.9 µM
- TGI (ACHN renal): > 100 µM
- GI50 (BT-549 breast): 40.5 µM
- TGI (BT-549 breast): > 100 µM
- GI50 (CAKI-1 renal): 7.94 µM
- TGI (CAKI-1 renal): > 100 µM
- GI50 (CCRF-CEM leukemia): 26.9 µM
- TGI (CCRF-CEM leukemia): > 100 µM
- GI50 (COLO 205 colon): 12.7 µM
- TGI (COLO 205 colon): > 100 µM
- GI50 (DU-145 prostate): 86.2 µM
- TGI (DU-145 prostate): > 100 µM
- GI50 (HCC-2998 colon): 19.9 µM
- TGI (HCC-2998 colon): 97.5 µM
- GI50 (HCT-116 colon): 29.4 µM
- TGI (HCT-116 colon): > 100 µM
- GI50 (HCT-15 colon): 12.5 µM
- TGI (HCT-15 colon): > 100 µM
- GI50 (HL-60(TB) leukemia): 10.4 µM
- TGI (HL-60(TB) leukemia): > 100 µM
- GI50 (HOP-62 NSCLC): 44.6 µM
- TGI (HOP-62 NSCLC): > 100 µM
- GI50 (HS 578T breast): 9.16 µM
- TGI (HS 578T breast): > 100 µM
- GI50 (HT29 colon): 13.7 µM
- TGI (HT29 colon): > 100 µM
- GI50 (IGROV1 ovarian): 22.9 µM
- TGI (IGROV1 ovarian): > 100 µM
- GI50 (K-562 leukemia): 19.9 µM
- TGI (K-562 leukemia): > 100 µM
- GI50 (KM12 colon): 17.5 µM
- TGI (KM12 colon): > 100 µM
- GI50 (M14 melanoma): 21.6 µM
- TGI (M14 melanoma): > 100 µM
- GI50 (MALME-3M melanoma): 6.64 µM
- TGI (MALME-3M melanoma): > 100 µM
- GI50 (MCF7 breast): 4.32 µM
- TGI (MCF7 breast): > 100 µM
- GI50 (MDA-MB-231 breast): 28.6 µM
- TGI (MDA-MB-231 breast): > 100 µM
- GI50 (MDA-MB-435): 14.9 µM
- TGI (MDA-MB-435): > 100 µM
- GI50 (MOLT-4 leukemia): 34.5 µM
- TGI (MOLT-4 leukemia): > 100 µM
- GI50 (NCI-H226 lung): 31.1 µM
- TGI (NCI-H226 lung): > 100 µM
- GI50 (NCI-H23 lung): 45.3 µM
- TGI (NCI-H23 lung): > 100 µM
- GI50 (NCI-H460 lung): 65.1 µM
- TGI (NCI-H460 lung): > 100 µM
- GI50 (NCI-H522 lung): 12.4 µM
- TGI (NCI-H522 lung): 69.4 µM
- GI50 (NCI/ADR-RES ovarian): 27.9 µM
- TGI (NCI/ADR-RES ovarian): > 100 µM
- GI50 (OVCAR-3 ovarian): 20.3 µM
- TGI (OVCAR-3 ovarian): 59.8 µM
- GI50 (OVCAR-4 ovarian): 5.28 µM
- TGI (OVCAR-4 ovarian): > 100 µM
- GI50 (OVCAR-5 ovarian): 71.8 µM
- TGI (OVCAR-5 ovarian): > 100 µM
- GI50 (OVCAR-8 ovarian): 35.9 µM
- TGI (OVCAR-8 ovarian): > 100 µM
- GI50 (PC-3 prostate): 16.3 µM
- TGI (PC-3 prostate): > 100 µM
- GI50 (RPMI-8226 leukemia): 6.12 µM
- TGI (RPMI-8226 leukemia): 49.4 µM
- GI50 (RXF 393 renal): 18.7 µM
- TGI (RXF 393 renal): 82.4 µM
- GI50 (SF-268 CNS): 41.6 µM
- TGI (SF-268 CNS): > 100 µM
- GI50 (SF-295 CNS): 23 µM
- TGI (SF-295 CNS): > 100 µM
- GI50 (SF-539 CNS): 34.6 µM
- TGI (SF-539 CNS): > 100 µM
- GI50 (SK-MEL-28 melanoma): 39.5 µM
- TGI (SK-MEL-28 melanoma): > 100 µM
- GI50 (SK-MEL-5 melanoma): 13.4 µM
- TGI (SK-MEL-5 melanoma): 43.8 µM
- GI50 (SK-OV-3 ovarian): 26 µM
- TGI (SK-OV-3 ovarian): > 100 µM
- GI50 (SN12C renal): 34.9 µM
- TGI (SN12C renal): > 100 µM
- GI50 (SNB-19 CNS): 35.5 µM
- TGI (SNB-19 CNS): > 100 µM
- GI50 (SNB-75 CNS): 2.47 µM
- TGI (SNB-75 CNS): > 100 µM
- GI50 (SR leukemia): 7.01 µM
- TGI (SR leukemia): > 100 µM
- GI50 (SW-620 colon): 58.1 µM
- TGI (SW-620 colon): > 100 µM
- GI50 (T-47D breast): 16.1 µM
- TGI (T-47D breast): > 100 µM
- GI50 (TK-10 renal): 10.1 µM
- TGI (TK-10 renal): > 100 µM
- GI50 (U251 CNS): 38.7 µM
- TGI (U251 CNS): > 100 µM
- GI50 (UACC-257 melanoma): 13.6 µM
- TGI (UACC-257 melanoma): > 100 µM
- GI50 (UACC-62 melanoma): 11.1 µM
- TGI (UACC-62 melanoma): > 100 µM
- GI50 (UO-31 renal): 2.49 µM
- TGI (UO-31 renal): > 100 µM

From PubChem BioAssay (NCI)
